Results reported in patent US8889704B2 (Array BioPharma Inc., priority 2011, dated 2014).
Counter-ions that a name gives are not always drawn.

Key:
Format in all cases: biochemical
PIM-1 = PIM-1 (Homo sapiens, UniProt P11309); assay: Enzyme PIM-1 Assay ([33P]ATP incorporation into PIM2tide, filter plate); conditions: averaged IC50; 35 μM ATP, 7.5 μM PIM2tide, 0.25 nM PIM-1, 60 min at 22° C.
Summary of the method: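 Ten-point, 3-fold dilution series (10 μM top, 2% DMSO final) tested for inhibition of 33P transfer from 35 μM ATP to 7.5 μM PIM2tide by 0.25 nM PIM-1. Reaction 60 min, 22 °C, pH 7.4 MOPS/MgCl2 buffer; phosphocellulose capture, scintillation counting, IC50 where fitted POC equals 50.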

recombinant rat PIM-3 = recombinant rat PIM-3 (Rattus norvegicus, UniProt O70444); assay: PIM-3 Assay (as Example A); conditions: averaged IC50; 30 μM ATP, 3.75 μM PIM2tide, 0.5 nM PIM-3
Summary of the method: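 33P incorporation from 30 μM [γ-33P]ATP into 3.75 μM PIM2tide by 0.5 nM rat PIM-3, 60 min at 22 °C in pH 7.4 MOPS buffer, read by P81 filter capture and scintillation counting. Compounds tested in 3-fold dilutions up to 10 μM final, 2% DMSO; percent-of-control data fitted by 4-parameter logistic for IC50.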

[1] = target: T1, GST-tagged recombinant full-length human Pim-2 (Homo sapiens, UniProt Q9P1W9); assay: PIM-2 Assay (as Example A); conditions: averaged IC50; 4 μM ATP, 1.0 μM PIM2tide, 1.5 nM Pim-2
T1 construct: GST-tagged recombinant full-length human Pim-2; GST
Summary of the method: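 IC50 was derived by 4-parameter logistic fitting of percent-of-control data over a 10-point, 3-fold series (highest 10 μM, 2% DMSO). Reactions held 1.5 nM GST-Pim-2 (full-length, human), 4 μM [γ-33P]ATP and 1.0 μM PIM2tide for 60 min at 22 °C, pH 7.4; 33P-peptide captured on P81 filters.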

T1 sequence (Q9P1W9 whole entry): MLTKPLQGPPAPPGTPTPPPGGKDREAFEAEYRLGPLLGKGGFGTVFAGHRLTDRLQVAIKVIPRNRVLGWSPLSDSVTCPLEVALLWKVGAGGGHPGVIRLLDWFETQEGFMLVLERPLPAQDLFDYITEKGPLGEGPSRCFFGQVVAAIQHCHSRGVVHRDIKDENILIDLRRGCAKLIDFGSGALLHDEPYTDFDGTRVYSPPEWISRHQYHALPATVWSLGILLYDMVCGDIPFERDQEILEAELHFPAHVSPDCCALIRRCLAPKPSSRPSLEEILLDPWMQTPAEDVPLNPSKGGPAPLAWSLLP
Sequence of PIM-1 (P11309 whole entry, species assumed): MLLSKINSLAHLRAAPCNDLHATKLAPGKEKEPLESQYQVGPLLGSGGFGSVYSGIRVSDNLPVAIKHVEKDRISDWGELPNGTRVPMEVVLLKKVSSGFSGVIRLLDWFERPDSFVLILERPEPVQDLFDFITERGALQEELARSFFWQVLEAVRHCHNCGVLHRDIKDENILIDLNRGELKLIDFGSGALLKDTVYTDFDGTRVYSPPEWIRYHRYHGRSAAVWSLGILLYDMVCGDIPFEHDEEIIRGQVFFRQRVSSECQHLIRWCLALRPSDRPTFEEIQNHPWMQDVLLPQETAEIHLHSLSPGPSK

| IC50 (PIM-1) [nM] | IC50 (recombinant rat PIM-3) [nM] | IC50 [1] [nM] | Compound |
| --- | --- | --- | --- |
| 0.2 | 0.8 | 206 | N[C@H]1CCN([C@H](c2ccc3nnc(-c4ccc5cc(F)cc(OCC(F)(F)F)c5n4)n3c2)C(F)(F)F)C1 [Example 232, (S)-1-((R)-2,2,2-trifluoro-1-(3-(6-fluoro-8-(2,2,2-trifluoroethoxy)quinolin-2-yl)-[1,2,4]triazolo[4,3-a]pyridin-6-yl)ethyl)pyrrolidin-3-amine dihydrochloride] |
| 0.28 | 1.1 | 260 | COCCCOc1cc(F)cc2ccc(-c3nnc4ccc([C@@H](N5CC[C@H](N)C5)C(F)(F)F)cn34)nc12 [Example 233, (S)-1-((R)-2,2,2-trifluoro-1-(3-(6-fluoro-8-(3-methoxypropoxy)quinolin-2-yl)-[1,2,4]triazolo[4,3-a]pyridin-6-yl)ethyl)pyrrolidin-3-amine dihydrochloride] |
| 8.22 | 33 | > 1000 | CN(C)C(=O)Cc1cccc2ccc(-c3nnc4ccc([C@@H](N5CC[C@H](N)C5)C(F)(F)F)cn34)nc12 [Example 234, 2-(2-(6-((R)-1-((S)-3-aminopyrrolidin-1-yl)-2,2,2-trifluoroethyl)-[1,2,4]triazolo[4,3-a]pyridin-3-yl)quinolin-8-yl)-N,N-dimethylacetamide dihydrochloride] |
| 7.81 | 33 | > 1000 | CCNC(=O)Cc1cccc2ccc(-c3nnc4ccc([C@@H](N5CC[C@H](N)C5)C(F)(F)F)cn34)nc12 [Example 235, 2-(2-(6-((R)-1-((S)-3-aminopyrrolidin-1-yl)-2,2,2-trifluoroethyl)-[1,2,4]triazolo[4,3-a]pyridin-3-yl)quinolin-8-yl)-N-ethylacetamide dihydrochloride] |
| 1.08 | 2.4 | 675 | CC(C)(O)Cc1cc2nc(-c3nnc4ccc([C@@H](N5CC[C@H](N)C5)C(F)(F)F)cn34)ccc2cc1F [Example 236, dihydrochloride] |
| 2.91 | 1.8 | 211 | CC(C)(O)Cc1cc2nc(-c3nnc4ccc([C@H](N5CC[C@H](N)C5)C(F)(F)F)cn34)ccc2cc1F [Example 237, dihydrochloride] |
| 0.17 | 0.6 | 166 | C[C@H](CO)Oc1cc(F)cc2ccc(-c3nnc4ccc([C@@H](N5CC[C@H](N)C5)C(F)(F)F)cn34)nc12 [Example 238, (R)-2-(2-(6-((R)-1-((S)-3-aminopyrrolidin-1-yl)-2,2,2-trifluoroethyl)-[1,2,4]triazolo[4,3-a]pyridin-3-yl)-6-fluoroquinolin-8-yloxy)propan-1-ol dihydrochloride] |
| 1.66 | 12 | > 1000 | N[C@H]1CCN([C@H](c2ccc3nnc(-c4ccc5ccc(OC(F)(F)F)cc5n4)n3c2)C(F)(F)F)C1 [Example 239, (S)-1-((R)-2,2,2-trifluoro-1-(3-(7-(trifluoromethoxy)quinolin-2-yl)-[1,2,4]triazolo[4,3-a]pyridin-6-yl)ethyl)pyrrolidin-3-amine dihydrochloride] |
| 2.37 | 18 | > 1000 | COc1cccc2ccc(-c3nnc4ccc([C@@H](N5CC[C@@](C)(N)C5)C(F)(F)F)cn34)nc12 [Example 240, (R)-3-methyl-1-((R)-2,2,2-trifluoro-1-(3-(8-methoxyquinolin-2-yl)-[1,2,4]triazolo[4,3-a]pyridin-6-yl)ethyl)pyrrolidin-3-amine dihydrochloride] |
| 2.6 | 17 | > 1000 | COc1cc(F)cc2ccc(-c3nnc4ccc([C@@H](N5CC[C@@](C)(N)C5)C(F)(F)F)cn34)nc12 [Example 241, (R)-3-methyl-1-((R)-2,2,2-trifluoro-1-(3-(6-fluoro-8-methoxyquinolin-2-yl)-[1,2,4]triazolo[4,3-a]pyridin-6-yl)ethyl)pyrrolidin-3-amine dihydrochloride] |
| 1.77 | 15 | > 1000 | COc1cccc2ccc(-c3nnc4ccc([C@@H](N5CC[C@](C)(N)C5)C(F)(F)F)cn34)nc12 [Example 246, (S)-3-methyl-1-((R)-2,2,2-trifluoro-1-(3-(8-methoxyquinolin-2-yl)-[1,2,4]triazolo[4,3-a]pyridin-6-yl)ethyl)pyrrolidin-3-amine dihydrochloride] |
| 0.41 | 1.2 | 392 | CCOc1cc2nc(-c3nnc4ccc([C@@H](N5CC[C@](C)(N)C5)C(F)(F)F)cn34)ccc2cc1F [Example 247, (S)-1-((R)-1-(3-(7-ethoxy-6-fluoroquinolin-2-yl)-[1,2,4]triazolo[4,3-a]pyridin-6-yl)-2,2,2-trifluoroethyl)-3-methylpyrrolidin-3-amine dihydrochloride] |
| 1.17 | 8.1 | > 1000 | COc1cc(F)cc2ccc(-c3nnc4ccc([C@@H](N5CC[C@](C)(N)C5)C(F)(F)F)cn34)nc12 [Example 248, (S)-3-methyl-1-((R)-2,2,2-trifluoro-1-(3-(6-fluoro-8-methoxyquinolin-2-yl)-[1,2,4]triazolo[4,3-a]pyridin-6-yl)ethyl)pyrrolidin-3-amine dihydrochloride] |
| 0.51 | 0.8 | 83 | CCOc1cc2nc(-c3nnc4ccc([C@H](N5CC[C@H](N)C5)C(F)(F)F)cn34)ccc2cc1F [Example 249, (S)-1-((S)-1-(3-(7-ethoxy-6-fluoroquinolin-2-yl)-[1,2,4]triazolo[4,3-a]pyridin-6-yl)-2,2,2-trifluoroethyl)pyrrolidin-3-amine dihydrochloride] |
| 0.25 | 0.9 | 273 | N[C@H]1CCN([C@H](c2ccc3nnc(-c4ccc5cc(F)cc(OCCO)c5n4)n3c2)C(F)(F)F)C1 [Example 254, 2-(2-(6-((R)-1-((S)-3-aminopyrrolidin-1-yl)-2,2,2-trifluoroethyl)-[1,2,4]triazolo[4,3-a]pyridin-3-yl)-6-fluoroquinolin-8-yloxy)ethanol dihydrochloride] |
| 0.24 | 0.6 | 284 | CCOc1ccc2ccc(-c3nnc4ccc([C@@H](N5CC[C@H](N)C5)C(F)(F)F)cn34)nc2c1 [Example 255, (S)-1-((R)-1-(3-(7-ethoxyquinolin-2-yl)-[1,2,4]triazolo[4,3-a]pyridin-6-yl)-2,2,2-trifluoroethyl)pyrrolidin-3-amine dihydrochloride] |
| 0.58 | 1 | 199 | CCOc1ccc2ccc(-c3nnc4ccc([C@H](N5CC[C@H](N)C5)C(F)(F)F)cn34)nc2c1 [Example 256, (S)-1-((S)-1-(3-(7-ethoxyquinolin-2-yl)-[1,2,4]triazolo[4,3-a]pyridin-6-yl)-2,2,2-trifluoroethyl)pyrrolidin-3-amine dihydrochloride] |
| 1.45 | 9 | 724 | CCOc1ccc2ccc(-c3nnc4ccc([C@@H](N5CCC6(CCCN6)C5)C(F)(F)F)cn34)nc2c1 (stereo partly drawn) [Example 257, 7-ethoxy-2-(6-((1R)-2,2,2-trifluoro-1-(1,7-diazaspiro[4.4]nonan-7-yl)ethyl)-[1,2,4]triazolo[4,3-a]pyridin-3-yl)quinoline dihydrochloride] |
| 2.05 | 1.9 | 531 | CCOc1ccc2ccc(-c3nnc4ccc([C@H](N5CCC6(CCCN6)C5)C(F)(F)F)cn34)nc2c1 (stereo partly drawn) [Example 258, 7-ethoxy-2-(6-((1S)-2,2,2-trifluoro-1-(1,7-diazaspiro[4.4]nonan-7-yl)ethyl)-[1,2,4]triazolo[4,3-a]pyridin-3-yl)quinoline dihydrochloride] |
| 0.12 | 0.3 | 54 | CC(C)(O)COc1cc(F)cc2ccc(-c3nnc4ccc([C@@H](N5CC[C@H](N)C5)C(F)(F)F)cn34)nc12 [Example 259, 1-(2-(6-((R)-1-((S)-3-aminopyrrolidin-1-yl)-2,2,2-trifluoroethyl)-[1,2,4]triazolo[4,3-a]pyridin-3-yl)-6-fluoroquinolin-8-yloxy)-2-methylpropan-2-ol formate] |
| 0.39 | 0.5 | 95 | COCCOc1ccc2ccc(-c3nnc4ccc([C@H](N5CC[C@](C)(N)C5)C(F)(F)F)cn34)nc2c1 [Example 260, (S)-3-methyl-1-((S)-2,2,2-trifluoro-1-(3-(7-(2-methoxyethoxy)quinolin-2-yl)-[1,2,4]triazolo[4,3-a]pyridin-6-yl)ethyl)pyrrolidin-3-amine dihydrochloride] |
| 0.6 | 3.3 | > 1000 | COCCOc1ccc2ccc(-c3nnc4ccc([C@@H](N5CC[C@](C)(N)C5)C(F)(F)F)cn34)nc2c1 [Example 261, (S)-3-methyl-1-((R)-2,2,2-trifluoro-1-(3-(7-(2-methoxyethoxy)quinolin-2-yl)-[1,2,4]triazolo[4,3-a]pyridin-6-yl)ethyl)pyrrolidin-3-amine dihydrochloride] |
